Values quoted from earlier work in PMC8184532 (European Journal of Clinical Pharmacology, 2021).
Where two headings read alike, the source gives them in different places.

How the values were obtained:
[1] = coadministered with ritonavir; Stader et al.

increase in amlodipine exposure (coadministered with antiviral agents for chronic hepatitis C or ritonavir-boosted indinavir, non-compartmental analyses): 2 fold | increase in amlodipine exposure (coadministered with ritonavir-boosted indinavir, healthy volunteers): 90% | increase in amlodipine exposure (in the presence of diltiazem, a CYP3A4 inhibitor, summary of product characteristics): 60% | increase in amlodipine exposure [1]: 90%
SMILES: CCOC(=O)C1=C(COCCN)NC(C)=C(C(=O)OC)C1c1ccccc1Cl (stereo not shown) [amlodipine]
